# Reference: PMC10373102 (Molecular microbiology, 2011)
# Molecular target: T1, CtdQ; acylating aldehyde dehydrogenase (ADA) (Acidovorax sp. JS42, UniProt A1W2K2)
# T1 sequence (A1W2K2 1-302): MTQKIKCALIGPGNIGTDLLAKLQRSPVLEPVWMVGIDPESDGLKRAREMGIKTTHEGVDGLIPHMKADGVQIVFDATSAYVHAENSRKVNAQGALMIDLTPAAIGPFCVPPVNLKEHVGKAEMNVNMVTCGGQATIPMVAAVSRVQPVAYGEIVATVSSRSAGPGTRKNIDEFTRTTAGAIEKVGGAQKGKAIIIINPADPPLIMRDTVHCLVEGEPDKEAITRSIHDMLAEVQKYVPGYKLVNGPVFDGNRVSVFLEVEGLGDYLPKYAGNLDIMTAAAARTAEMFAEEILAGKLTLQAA
# Test: enzyme assay in extract of E. coli expressing ctdQ
# Type: biochemical
# Conditions: details in SI
row,Compound,enzyme assay in extract of E. coli expressing ctdQ
1,CC=O [acetaldehyde],the enzyme was equally active with acetaldehyde and propionaldehyde
2,CCC=O [propionaldehyde],the enzyme was equally active with acetaldehyde and propionaldehyde
